Read-outs that look alike come from different tables or passages of the source.
How the values were obtained:
[1] = human, in vivo
Protocol: (§1) Blood was collected over time. […] Methyl salicylate and 1-menthol are contained in large amounts in daily necessities. Therefore, the use of such daily necessities was avoided before and during the application.
(§2) The plasma concentrations of the methyl salicylate, its metabolite salicylic acid, and the 1-menthol were separately measured. The measurement was performed by liquid chromatography-mass spectrometry for the salicylic acid and by gas chromatography-mass spectrometry for the methyl salicylate and the 1-menthol. Each of the measurement methods was validated beforehand to confirm measurement reliability. Values obtained by subtracting an endogenous concentration (measurement value on 0 hour) before the application from an actual measurement value were used as plasma concentrations during the application. The Cmax and AUC0-24 were calculated according to the standard methods.
A mean was an average value from the seven individuals to be tested. This measurement of the plasma concentrations was performed according to the guideline of FDA (U.S. Food and Drug Administration) (Guidance for Industry=Bioanalytical Method Validation).

[2] = clinical; settings: human, in vivo; for Cmax: plasma Cmax
Protocol: as §1, §2
This measurement of the plasma concentrations was performed according to the guideline of FDA (U.S. Food and Drug Administration) (Guidance for Industry=Bioanalytical Method Validation).

[3] = cited from earlier work

time within which maximum plasma concentration (Cmax) is achieved [1] | AUC(0-t) ([2]; plasma AUC0-24, Mean ± S.D.) | AUC(0-t) ([2]; plasma AUC0-24, Maximum value) | AUC(0-t) ([2]; plasma AUC0-24, Minimum value) | Cmax ([2]; Maximum value) | Cmax ([2]; Mean ± S.D.) | Cmax ([2]; Minimum value) | SMILES | plasma concentration of methyl salicylate ([3]; eight pieces of adhesive preparation with 74.88 mg/piece of methyl salicylate applied to a human) | plasma concentration of methyl salicylate ([3]; two pieces of adhesive preparation with 74.88 mg/piece of methyl salicylate applied to a human)
≤ 8 h | 80.6 ng·h/mL |  |  |  |  |  | CC1CCC(C(C)C)C(O)C1 (stereo not drawn) [Example 1-menthol, 1-menthol] |  | 
≤ 12 h | 8850 ng·h/mL | 24700 ng·h/mL | 3460 ng·h/mL | 4100 ng/mL | 1290 ng/mL | 531 ng/mL | O=C(O)c1ccccc1O [Salicylic acid] |  | 
≤ 6 h | 30.1 ng·h/mL | 139 ng·h/mL | 3.7 ng·h/mL | 109 ng/mL | 21.1 ng/mL | 2.5 ng/mL | COC(=O)c1ccccc1O [Methyl salicylate] | approximately 30 ng/mL | hardly rose
